Values of other authors, collected in patent publication US20030072802A1, “Sustained release topiramate” (R.T. Alamo Ventures, Inc., priority 2001, published 2003).

Assays:
[1] = formulations currently in use; after a 200 mg dose
[2] = system: state-dependent sodium channel (cultured neurons)
[3] = system: kainate/AMPA subtype of excitatory amino acid (glutamate) receptor

Structure (SMILES): CC1(C)OC2COC3(COS(N)(=O)=O)OC(C)(C)OC3C2O1 [topiramate, 2,3:4,5-bis-Q-(1-methylethylidene)-p-D-fructopyranose sulfamate]
- half life of plasma concentration [1]: about 21 hours
- time of peak topiramate plasma concentration [1]: about 2 hours
- effect on action potentials elicited repetitively by sustained depolarization [2]: blocked by topiramate in a time-dependent manner
- effect on GABA-induced flux of chloride ions into neurons (GABAA receptors): enhances the ability of GABA to induce a flux of chloride ions into neurons
- effect on the duration of the channel open time (GABAA receptors): nor did topiramate increase the duration of the channel open time
- effect on the frequency at which GABA activates GABAA receptors (GABAA receptors): increases the frequency
- sensitivity of the GABA-potentiating effect to flumazenil (benzodiazepine antagonist) (GABAA receptors): not blocked by flumazenil
- effect on the ability of kainate to activate the kainate/AMPA receptor [3]: antagonizes the ability of kainate to activate
- effect on the activity of NMDA at the NMDA receptor subtype (NMDA receptor subtype): no apparent effect
